Consider 1 molecule from patent publication US20100105777A1, “AMIDE OR THIOAMIDE DERIVATIVES AND THEIR USE IN THE TREATMENT OF PAIN” (CARA THERAPEUTICS, INC., priority 2004, published 2010).

Structures are written as SMILES.

Format in all cases: in vivo
The subject of experiment [1] is rat model of inflammatory pain (formalin-injected paw). In words: Formalin flinch test. As to conditions: i.p. The method, then: (§1) Inflammatory (Formalin flinch test) and chronic pain (L5/L6 nerve ligation injury) models were used as assays in both rats and mice.
Animals are habituated to the their local environment for about 30 min prior to testing. The formalin test is carried out in a 30×30×30 cm chamber with the front and bottom of the chambers made of clear plexi-glass. Mirrors are placed at a 45° angle under the chambers in order to have an un-obstructive view of the paws. Animals are restrained manually and 2% formalin (aq) is injected subcutaneously into the planar surface of the left paw with a 30 gauge needle. The numbers of paw flinches are then recorded in 5 min intervals from the time of injection for a 60 min period. Elevations of the paw, licking and biting of the injected paw were counted as “flinches”. The […] or “first phase” of the nociceptive response peaked at 5 min after formalin injection and the inflammatory or “second phase” peaked at 30 min after formalin injection. The number of flinches in the first 10 min were representative of the […] phase and the number of flinches from 10 min until 60 min were representative of the inflammatory phase. Antinociception for both phase I and phase II was calculated as follows: […]
Potency (A50) is calculated from the full dose response curve for both phase I and phase II.

The test system of experiment [2] is rat model of chronic pain (L5/L6 spinal nerve ligation). In words: L5/L6 nerve ligation injury, tactile allodynia (von Frey). As to the method: as §1
(§2) Nerve ligation injury was performed according to the method described previously (Kim and Chung). This methodology produces signs of tactile allodynia and thermal hyperalgesia. Rats were anesthetized with halothane and the L5 and L6 spinal nerves were exposed, carefully isolated, and tightly ligated with 4-0 silk suture distal to the dorsal root ganglia (DRG). After ensuring homeostatic stability the wounds were sutured, and the animals were allowed to recover in individual cages. Sham-operated rats were prepared in an identical fashion except that the L5 and L6 spinal nerves were not ligated. Compound 17 was tested in rats after L5/L6 nerve ligation. Compound administration was directly into the hind paw (i.paw) or into the peritoneal cavity (i.p.).
In the evaluation of the tactile allodynia, the paw withdrawal threshold was determined in response to probing with calibrated von Frey filaments. The rats were kept in suspended cages with wire mesh floors and the von Frey filaments were applied perpendicularly to the planar surface of the paw of the rat until it bent slightly, and was held for 3 to 6 s, or until the paw is withdrawn. […] The 50% paw withdrawal threshold was determined by the nonparametric method. […]

The test system is the same in experiment [3]. In words: L5/L6 nerve ligation injury, thermal hyperalgesia. The method, then:
as §1, §2

On to `NC(=O)CCCN(CCCC1CCCCC1)C(=O)Nc1ccccc1` [Compound 17, 4-[1-(3-cyclohexylpropyl)-3-phenylureido]butyramide], for which, in experiment [1] (phase I (first 10 min)), the “A50 Formalin Phase I” value is recorded as less than 0.01 mg/kg. Moreover, in experiment [1] (phase II (10-60 min)), the “A50 Formalin Phase II” value amounted to 0.01 mg/kg. The molecule further came in with an antiallodynic effect in experiment [2] (100 μg (in 50 μl) into the paw) of 90%. Besides, the “A50 L5/L6 antiallodynia” value in experiment [2] (i.paw) is less than 30 mg/paw. In experiment [3] (30 μg (in 50 μl) into the paw), the “antihyperalgesic response to thermal testing” value is given as 100%. The “A50 L5/L6 antihyperalgesia” value in experiment [3] (i.paw) is less than 30 μg/paw.
